We go through 70 molecules from ChEMBL document CHEMBL1123158, “Synthesis and quantitative structure-activity relationships of antiallergic 2-hydroxy-N-1H-tetrazol-5-ylbenzamides and N-(2-hydroxyphenyl)-1H-tetrazole-5-carboxamides” (J Med Chem, 1986).

The subject of assay [1] is Rattus norvegicus. The experiment in a line: Antiallergic activity in the rat PCA test following iv administration relative to M&B 22,948, the dose of which was 0.1 mg/kg for 100% inhibition. The assay is classed as functional.
For assay [2], the species on record is Rattus norvegicus. The experiment in a line: Biological activity. Format: functional.

With `COc1ccc(O)c(C(=O)Nc2nn[nH]n2)c1`, the Relative activity in assay [1] was 0.2. Besides, the “Log [MrI]” value in assay [2] was 1.672.
Consider `CCCc1cc(C(C)=O)c(O)c(C(=O)Nc2nn[nH]n2)c1`, for which, in assay [1], the Relative activity stood at 2. Besides, in assay [2], the “Log [MrI]” value amounted to 2.762.
In assay [1], `CO/N=C(\C)c1cc(C)cc(NC(=O)c2nn[nH]n2)c1O` yielded a Relative activity of 10. Besides, the “Log [MrI]” value in assay [2] was 3.463.
Molecule `CCc1cc(C(=O)Nc2nn[nH]n2)c(O)c(/C(C)=N/OC)c1` gave a Relative activity in assay [1] of 3.5. Also, the “Log [MrI]” value in assay [2] was found to be 3.025.
`CC(=O)c1cc(S(N)(=O)=O)cc(C(=O)Nc2nn[nH]n2)c1O` returned a Relative activity in assay [1] of 0.2. For the same molecule, in assay [2], the “Log [MrI]” value was determined as 1.814.
The molecule `CN(C)S(=O)(=O)c1ccc(O)c(NC(=O)c2nn[nH]n2)c1` came in with a Relative activity in assay [1] of 0.25. For the same molecule, the “Log [MrI]” value in assay [2] came out at 1.892.
With `CCc1cc(C(C)=O)c(O)c(C(=O)Nc2nn[nH]n2)c1`, in assay [1], the Relative activity was found to be 1. Moreover, in assay [2], the “Log [MrI]” value stood at 2.439.
In assay [1], `COc1cc(C(C)=O)c(O)c(C(=O)Nc2nn[nH]n2)c1` gave a Relative activity of 2. Besides, the “Log [MrI]” value in assay [2] was 2.743.
`COc1cc(C)cc(C(=O)Nc2nn[nH]n2)c1O` yielded a Relative activity in assay [1] of 0.5. Besides, the “Log [MrI]” value in assay [2] is 2.095.
Molecule `COc1cc(Br)cc(NC(=O)c2nn[nH]n2)c1O` came in with a Relative activity in assay [1] of 2. For the same molecule, the “Log [MrI]” value in assay [2] is given as 2.798.
In turn, `CN(C)S(=O)(=O)c1ccc(O)c(C(=O)Nc2nn[nH]n2)c1` registered a Relative activity in assay [1] of 0.05. In assay [2], the “Log [MrI]” value stood at 1.193.
Taken in the same sequence, the figures for `CCc1cc(NC(=O)c2nn[nH]n2)c(O)c(OC)c1` were 10 and 3.42.
On to `CC(=O)c1cc(Cl)cc(NC(=O)c2nn[nH]n2)c1O`, for which the Relative activity in assay [1] stood at 7. For the same molecule, in assay [2], the “Log [MrI]” value is reported as 3.295.
The matching figures for `O=C(Nc1nn[nH]n1)c1cc(C(F)(F)F)ccc1O`: 0.02 and 0.737.
In assay [1], `CCC(=O)c1cc(C)cc(NC(=O)c2nn[nH]n2)c1O` returned a Relative activity of 5. Also, in assay [2], the “Log [MrI]” value was 3.139.
`CCC(=O)c1cc(C)cc(C(=O)Nc2nn[nH]n2)c1O` displayed a Relative activity in assay [1] of 2. Also, the “Log [MrI]” value in assay [2] is on record as 2.741.
`Cc1ccc(O)c(C(=O)Nc2nn[nH]n2)c1` displayed a Relative activity in assay [1] of 0.1. The “Log [MrI]” value in assay [2] was 1.34.
In turn, `COc1cccc(C(=O)Nc2nn[nH]n2)c1O` showed a Relative activity in assay [1] of 1. For the same molecule, the “Log [MrI]” value in assay [2] was 2.371.
`O=C(Nc1nn[nH]n1)c1cc(Cl)ccc1O` displayed a Relative activity in assay [1] of 0.1. Moreover, the “Log [MrI]” value in assay [2] came to 1.38.
In assay [1], `CC(=O)c1cc(C(C)(C)C)cc(C(=O)Nc2nn[nH]n2)c1O` had a Relative activity of 0.4. Also, the “Log [MrI]” value in assay [2] is 2.084.
For the molecule `CCc1cc(C(=O)Nc2nn[nH]n2)c(O)c(/C(C)=N/O)c1`, the Relative activity in assay [1] is recorded as 10. Also, in assay [2], the “Log [MrI]” value was 3.462.
Taken in the same sequence, the figures for `CC(=O)c1cc(C#N)cc(NC(=O)c2nn[nH]n2)c1O` were 10 and 3.435.
The matching figures for `COc1cc(C)cc(NC(=O)c2nn[nH]n2)c1O`: 2.5 and 2.794.
Take `CC(=O)c1cc(NC(=O)c2nn[nH]n2)c(O)c(C(C)=O)c1`: in assay [1], the Relative activity is 0.5. Besides, the “Log [MrI]” value in assay [2] is listed as 2.16.
The molecule `CC(=O)c1cccc(NC(=O)c2nn[nH]n2)c1O` registered a Relative activity in assay [1] of 20. For the same molecule, the “Log [MrI]” value in assay [2] worked out at 3.694.
The matching figures for `O=C(Nc1nn[nH]n1)c1cc(Br)ccc1O`: 0.02 and 0.756.
Molecule `Cc1cc(NC(=O)c2nn[nH]n2)c(O)c(C(=O)Cc2ccccc2)c1` had a Relative activity in assay [1] of 0.1. Further, the “Log [MrI]” value in assay [2] stood at 3.528.
In assay [1], `N#Cc1ccc(O)c(C(=O)Nc2nn[nH]n2)c1` showed a Relative activity of 0.5. Also, the “Log [MrI]” value in assay [2] came to 2.061.
`COc1cccc(NC(=O)c2nn[nH]n2)c1O` displayed a Relative activity in assay [1] of 5. The “Log [MrI]” value in assay [2] amounted to 3.07.
The matching figures for `CC(=O)c1cc(Br)cc(C(=O)Nc2nn[nH]n2)c1O`: 0.05 and 1.212.
Take `C/C(=N\O)c1cc(C)cc(NC(=O)c2nn[nH]n2)c1O`: the Relative activity in assay [1] is reported as 35. In addition, the “Log [MrI]” value in assay [2] was determined as 3.985.
`COc1cc(NC(=O)c2nn[nH]n2)c(O)c(C(C)=O)c1` had a Relative activity in assay [1] of 10. Further, the “Log [MrI]” value in assay [2] worked out at 3.443.
Take `COc1cc([N+](=O)[O-])cc(C(=O)Nc2nn[nH]n2)c1O`: in assay [1], the Relative activity is on record as 1. In addition, the “Log [MrI]” value in assay [2] amounted to 2.447.
`Cc1cc(NC(=O)c2nn[nH]n2)c(O)c(C(=O)C(F)(F)F)c1` returned a Relative activity in assay [1] of 0.2. Moreover, in assay [2], the “Log [MrI]” value is 1.8.
In assay [1], `CC(=O)c1cc(C(C)(C)C)cc(NC(=O)c2nn[nH]n2)c1O` gave a Relative activity of 0.5. Moreover, the “Log [MrI]” value in assay [2] turned out to be 2.17.
`CCC(=O)c1cc(CC)cc(NC(=O)c2nn[nH]n2)c1O`: in assay [1], the Relative activity stood at 5. In addition, the “Log [MrI]” value in assay [2] is on record as 3.16.
Taken in the same sequence, the figures for `Cc1cc(NC(=O)c2nn[nH]n2)c(O)c(C(=O)C2CC2)c1` were 5 and 3.157.
The matching figures for `CC(=O)Nc1cc(C(C)=O)c(O)c(C(=O)Nc2nn[nH]n2)c1`: 0.2 and 1.784.
Take `O=C(Nc1nn[nH]n1)c1cc(F)ccc1O`: the Relative activity in assay [1] came to 0.1. Further, the “Log [MrI]” value in assay [2] was 1.348.
Take `CCCC(=O)c1cc(C)cc(NC(=O)c2nn[nH]n2)c1O`: the Relative activity in assay [1] is on record as 4. Besides, the “Log [MrI]” value in assay [2] is recorded as 3.063.
Taken in the same sequence, the figures for `CCC(=O)c1cc(C#N)cc(NC(=O)c2nn[nH]n2)c1O` were 5 and 3.156.
The molecule `CC(=O)Nc1ccc(O)c(C(=O)Nc2nn[nH]n2)c1` registered a Relative activity in assay [1] of 0.01. The “Log [MrI]” value in assay [2] came out at 0.418.
As for `COc1cc(C(C)(C)C)cc(C(=O)Nc2nn[nH]n2)c1O`, in assay [1], the Relative activity turned out to be 0.1. Further, the “Log [MrI]” value in assay [2] is 1.464.
`CC(=O)c1cc([N+](=O)[O-])cc(NC(=O)c2nn[nH]n2)c1O` showed a Relative activity in assay [1] of 5. The “Log [MrI]” value in assay [2] came to 3.164.
The molecule `CC(=O)c1cccc(C(=O)Nc2nn[nH]n2)c1O` yielded a Relative activity in assay [1] of 1. In addition, in assay [2], the “Log [MrI]” value was found to be 2.393.
As to `CC(=O)c1cc(CC(C)C)cc(C(=O)Nc2nn[nH]n2)c1O`, the Relative activity in assay [1] came out at 0.2. Further, the “Log [MrI]” value in assay [2] was found to be 1.783.
Taken in the same sequence, the figures for `CC(=O)c1cc(C)cc(NC(=O)c2nn[nH]n2)c1O` were 10 and 3.417.
Molecule `CC(=O)c1cc(Cl)cc(C(=O)Nc2nn[nH]n2)c1O` displayed a Relative activity in assay [1] of 0.05. For the same molecule, the “Log [MrI]” value in assay [2] stood at 1.149.
Taken in the same sequence, the figures for `CCCc1cc(NC(=O)c2nn[nH]n2)c(O)c(C(C)=O)c1` were 10 and 3.461.
Taken in the same sequence, the figures for `CC(=O)c1cc([N+](=O)[O-])cc(C(=O)Nc2nn[nH]n2)c1O` were 1 and 2.465.
In assay [1], `O=C(Nc1nn[nH]n1)c1ccccc1O` came in with a Relative activity of 0.1. In addition, the “Log [MrI]” value in assay [2] is 1.312.
`COc1cc(NC(C)=O)cc(C(=O)Nc2nn[nH]n2)c1O`: in assay [1], the Relative activity is recorded as 0.02. Also, the “Log [MrI]” value in assay [2] stood at 0.766.
`O=C(Nc1ccccc1O)c1nn[nH]n1`: the Relative activity in assay [1] is 1. Besides, in assay [2], the “Log [MrI]” value was 2.31.
Regarding `COc1cc(OC)c(O)c(C(=O)Nc2nn[nH]n2)c1`, the Relative activity in assay [1] turned out to be 0.5. Moreover, the “Log [MrI]” value in assay [2] is reported as 2.122.
`CC(C)(C)c1ccc(O)c(C(=O)Nc2nn[nH]n2)c1` returned a Relative activity in assay [1] of 0.01. Moreover, in assay [2], the “Log [MrI]” value is 0.417.
Turning to `CCc1cc(OC)c(O)c(C(=O)Nc2nn[nH]n2)c1`, the Relative activity in assay [1] was 1. Further, the “Log [MrI]” value in assay [2] was 2.42.
For `Cc1cc(NC(=O)c2nn[nH]n2)c(O)c(C(=O)N(C)C)c1`, in assay [1], the Relative activity was 1. Besides, the “Log [MrI]” value in assay [2] was 2.463.
Take `Cc1cc(NC(=O)c2nn[nH]n2)c(O)c(C(=O)C(C)C)c1`: the Relative activity in assay [1] amounted to 5. In addition, the “Log [MrI]” value in assay [2] is reported as 3.16.
With `COc1cc(Br)cc(C(=O)Nc2nn[nH]n2)c1O`, in assay [1], the Relative activity is reported as 0.2. Further, the “Log [MrI]” value in assay [2] amounted to 1.798.
The molecule `O=C(Nc1nn[nH]n1)c1cc(-c2ccccc2)ccc1O` showed a Relative activity in assay [1] of 0.01. Moreover, the “Log [MrI]” value in assay [2] is recorded as 0.449.
Consider `CC(=O)c1cc(Br)cc(NC(=O)c2nn[nH]n2)c1O`, for which the Relative activity in assay [1] came out at 2. The “Log [MrI]” value in assay [2] is listed as 2.814.
The matching figures for `CC(=O)c1ccc(O)c(C(=O)Nc2nn[nH]n2)c1`: 0.02 and 0.694.
In assay [1], `CC(=O)c1cc(C)cc(C(=O)Nc2nn[nH]n2)c1O` returned a Relative activity of 1. Further, the “Log [MrI]” value in assay [2] amounted to 2.417.
The matching figures for `Cc1cc(NC(=O)c2nn[nH]n2)c(O)c(C(N)=O)c1`: 5 and 3.118.
With `CS(=O)(=O)c1ccc(O)c(C(=O)Nc2nn[nH]n2)c1`, the Relative activity in assay [1] was 0.04. Moreover, in assay [2], the “Log [MrI]” value was 1.053.
`Cc1cc(NC(=O)c2nn[nH]n2)c(O)c(-c2nn[nH]n2)c1` yielded a Relative activity in assay [1] of 1. The “Log [MrI]” value in assay [2] turned out to be 2.455.
In turn, `COc1cc(C#N)cc(C(=O)Nc2nn[nH]n2)c1O` returned a Relative activity in assay [1] of 2. Also, the “Log [MrI]” value in assay [2] turned out to be 2.716.
`CCc1cc(NC(=O)c2nn[nH]n2)c(O)c(C(C)=O)c1` displayed a Relative activity in assay [1] of 20. Besides, in assay [2], the “Log [MrI]” value is 3.74.
Molecule `CSc1ccc(O)c(C(=O)Nc2nn[nH]n2)c1` returned a Relative activity in assay [1] of 0.2. In assay [2], the “Log [MrI]” value is 1.701.
In the case of `CC(=O)c1cc(S(C)(=O)=O)cc(NC(=O)c2nn[nH]n2)c1O`, the Relative activity in assay [1] turned out to be 2. The “Log [MrI]” value in assay [2] was found to be 2.813.
